Test [1] deals with T1, trypsin (Bos taurus, UniProt P00760).
T1 construct: Active trypsin is produced only after trypsinogen reaches the small intestine through the common bile duct and is cleaved by enterokinase; purchased Sigma, St. Louis; host or cells: bovine pancreas
T1 sequence (P00760 24-246): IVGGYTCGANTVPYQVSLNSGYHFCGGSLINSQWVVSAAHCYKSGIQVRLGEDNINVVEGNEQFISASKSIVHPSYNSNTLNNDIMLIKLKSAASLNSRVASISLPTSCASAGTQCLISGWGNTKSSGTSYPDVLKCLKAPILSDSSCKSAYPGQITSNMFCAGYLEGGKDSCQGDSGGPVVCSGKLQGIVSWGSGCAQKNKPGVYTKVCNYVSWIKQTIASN
Nature of the test: Steady-state kinetics of trypsin digestion of EGFP-based trypsin sensors and BAPNA (absorbance at 490 nm, Michaelis-Menten fit). In kind it is biochemical, bovine. The following applies: Table 2; 10 mM Tris, 20 mM CaCl2, pH 7.4.
Method: Initial rates of trypsin digestion reaction for EGFP-T/C1 with various concentrations were measured using a time-course model to monitor the change of absorbance at 490 nm for 10 min on a UV-1700 spectrometer (Shimadzu, Japan), where the initial rate was equivalent to the resulting slope of absorbance increase.
In order to investigate the kinetic change and to determine the steady-state kinetic parameters kcat, Km, and kcat/Km for hydrolysis of EGFP-based trypsin sensors upon the action of trypsin, initial rates were measured at various EGFP-based trypsin sensor concentrations. The change of absorbance was monitored at 490 nm for 10 min using UV-1700 spectrometer (Shimadzu, Japan) in time-course model and the slope of absorbance increase was determined as the initial rate data. The data were fitted to the Michaelis-Menten equation by nonlinear regression using KaleidaGraph 3.5 software (Synergy software) to obtain the Michaelis constants (Km), turnover numbers (kcat) and specificity constants (kcat/Km).
In order to examine buffer pH effect on trypsin cleavage, kinetic parameters of our designed trypsin sensors were evaluated during trypsin digestion in PIPES buffer (20 mM PIPES, 20 mM CaCl2, pH 6.7) and Tris buffer (10 mM Tris, 20 mM CaCl2, pH 7.4 and pH 8.0), respectively. […]

Test [2] concerns the target T1, trypsin. Description: Inhibition by leupeptin of trypsin digestion of EGFP-T/C1. The test is classed as biochemical, bovine. As for the experimental part:
In order to examine inhibition effect of leupeptin (Sigma, St. Louis), a trypsin inhibitor, leupeptin at various concentrations (0, 12.5, 25, 50 and 100 nM) was mixed with EGFP-T/C1 and subsequently digested by trypsin at a final concentration of 0.005 μM. The kinetic studies of EGFP-T/C1 with various concentrations were performed at each inhibitor concentration level and the absorbance change at 490 nm was mintored using a time course model. The double reciprocal of initial rates and trypsin sensor concentrations was performed to obtain the plot for confirming inhibition type and calculation of Ki value.
In order to ensure that our developed sensor is able to directly monitor the catalytic step of the enzymatic reaction, we then examined the inhibition effect of leupeptin on trypsin during the digestion of EGFP-T/C1 with various leupeptin concentrations. The rate of the signal change due to cleavage decreases with increasing leupeptin concentrations (FIG. 6A).

Test [3] deals with caspase-3 activation in Hela cells. Description: Fluorescence imaging of Hela cells transfected with caspase-3 sensor, STS induction. The test is classed as cell-based, human. As for the experimental part: (§1) Hela cells were grown on glass coverslips (0.5-1.0×10^6 cells/dish) in 35 mm culture dishes in Dulbecco's Modified Eagles Medium (DMEM) (Sigma Chemical Co., St. Louis, Mo.) with 44 mM NaHCO3, pH 7.2, and supplemented with 10% (v/v) fetal calf serum (FCS), 100 U/ml penicillin and 0.1 mg/ml streptomycin (Pen/Strep) at 37° C. with 5% CO2 in a humidified incubation chamber. After the cells were seeded and grown overnight, the EGFP-based caspase-3 sensor plasmid was transfected into Hela cells with lipofectamine-2000 (Invitrogen Life Technologies) and serum-free Opti-MEM (Gibco Invitrogen Corporation) according to the manufacturer's instructions. […] The cells were then grown 24 to 48 hours in a humidified chamber with 5% CO2 at 30° C. before fluorescence microscope imaging. […]
Hela cells with transfected EGFP-based caspase-3 sensor were imaged following its expression for 24 or 48 hours. […] Fluorescence imaging of Hela cells with EGFP-wt transfection was used as the control.
The ratiometric change between fluorescence emission for excitation at 398 nm and 488 nm was used to detect caspase-3 activation and inhibition at different time intervals in living cells. Fluorescence for both excitation wavelengths is expected to decrease at 398 nm and produce a corresponding increase at 488 nm during the course of the reaction. The fluorescence intensity of the cells was normalized with equation 2: […]

The target of test [4] is T1, trypsin. Nature of the test: Cleavage status after trypsin digestion (SDS-PAGE, MALDI-MS). The test is classed as biochemical, bovine. The following applies: up to 40 hours. On the procedure:
To examine the cleavage status of the protease sensors (EGFP-T/C1, and EGFP-wt) at different time points, 20 μl of reaction mixtures of 15 μM EGFP variants during trypsin digestion were removed and immediately added SDS sample buffer and boiled to stop the reaction for monitoring by SDS-PAGE at different digestion time intervals (0 min, 5 min, 10 min, 30 min, 60 min, 2 h, 6 h, and 24 h). The samples were loaded on 15% SDS-PAGE to examine the cleavage status of three EGFP variants.
Similarly, after digestion with trypsin, the cleavage status was confirmed using matrix assisted laser desorption/ionization-mass spectrometry (MALDI-MS).
In order to verify the cleavage status of EGFP-based trypsin sensors, the samples during trypsin digestion at various digestion time intervals were examined with 15% SDS-PAGE and MALDI mass spectrometry.

Test [5] deals with trypsin activation in MIA PaCa-2 cells. Description: Fluorescence imaging of MIA PaCa-2 cells transfected with trypsin sensor, caerulein activation. The following applies: zymogen activation by 10 nM caerulein. The test is classed as cell-based. As for the experimental part: as §1, with “MIA PaCa-2” for “Hela”, “bovine” for “calf”, “(FBS),” for “(FCS),”, “EGFP-T/C1” for “the EGFP-based caspase-3 sensor plasmid”
MIA PaCa-2 cells with transfected EGFP-T/C1 were imaged following trypsin sensor expression for 24 or 48 hours. […] The ratiometric change between fluorescence emission for excitation at 398 nm and 488 nm was used to detect trypsin activity at different time intervals in the living cells. Fluorescence for both excitation wavelengths is expected to decrease at 398 nm and produce a corresponding increase at 488 nm during the course of reaction. The fluorescence intensity of the cells was normalized with equation 2: […]
The fluorescence ratiometric change (R) is expressed by equation 3: […]

Test [6] relates to caspase-3 activation in MIA PaCa-2 cells. Nature of the test: Fluorescence imaging of MIA PaCa-2 cells transfected with caspase-3 sensor, STS induction. In kind it is cell-based. The text has this: After induction, there was obvious increase in fluorescence of EGFP-EF172cas2 at 398 nm excitation and significant decrease in fluorescence at 488 nm excitation in real time, which results in an increased fluorescence ratio change between 398 and 488 nm, and a corresponding increase in sensitivity for determining the caspase-3 activity in living cells, and an increase in the dynamic range up to 4 for the caspase-3 activity determination. Although there was a slight increase and then decrease in fluorescence of EGFP-wt at both wavelengths after STS induction, the relative fluorescence ratio change was negligible. A possible reason for this would be a change in the cell shape to which increases the fluorescence slightly during the apoptosis. […] Apoptosis is observed in MIA PaCa-2 is a little earlier and stronger than in HeLa cells. There is a huge fluorescence change with excitation at 398 nm in MIA PaCa-2 cells transfected with EGFP-EF172cas2. The cause of this is reasoned to be due to intrinsic high-level caspase-3 activity in MIA PaCa-2 cells and its activity is enhanced by STS induction.

Entries after “also recorded” stand apart in the source; their conditions may differ.

Regarding `Cl.N=C(N)NCCCC(NC(=O)c1ccccc1)C(=O)Nc1ccc([N+](=O)[O-])cc1` (racemic) [BAPNA, benzoyl-DL-arginine-4-nitroanilide hydrochloride], the kcat (usually the maximal rate divided by the concentration of active sites) at trypsin [1] came out at 1.33 ± 0.17 s⁻¹.
Regarding `CC(=O)N[C@@H](CC(C)C)C(=O)N[C@@H](CC(C)C)C(=O)N[C@H](C=O)CCCNC(=N)N` [leupeptin], at trypsin [2] (double reciprocal plot, Enzfitter fit), the inhibition type entry is listed as “competitive inhibition”. In addition, the affinity on trypsin [2] (substrate EGFP-T/C1, 0.005 μM trypsin, 10 mM Tris, 20 mM CaCl2, pH 7.4), expressed as Ki, was 31.1 ± 2.3 nM.
As to DEVD-CHO, the “ratio (R398/488) of fluorescence of caspase-3 sensor cells incubated with caspase-3 inhibitor” value in test [3] (Hela cells transfected with EGFP-cas3-1e, inhibitor overnight, then 1 μM STS) is “no change”.
As for “EGFP-wt: enhanced green fluorescent protein, Sequence ID. No. 119; used as the control”, in the test with trypsin [4], the “cleavage status upon incubation with trypsin” value is on record as “remains intact”. Besides, the “ratiometric emission change (510 nm emission, excitation 488/398 nm)” value in test [5] is “remained unchanged”. In addition, the “ratio (R398/488) of fluorescence signal change” value in test [3] (Hela cells, 1 μM STS induction, emission 510 nm) is given as “no apparent ratiometric change; also recorded: negligible”. Also, in test [6], the fluorescence ratio change entry was “maintains a gradient increase”.

For the origin of these results see patent US9103830B2, “Enzyme sensors, methods for preparing and using such sensors, and methods of detecting protease activity” (Georgia State University Research Foundation, Inc., priority 2006, dated 2015).
